# Assays:
# [1] = tested on: MCF-7 human breast cancer cells; assay: Doxorubicin-induced apoptotic cell death of breast cancer cells; assay type: cell-based; conditions: MCF-7 cells, doxorubicin 48 hours, FIG. 14
# Description: The MCF-7 human breast cancer cells were cultured in Eagle's Minimum Essential Medium supplemented with 10% non-inactivated fetal bovine serum and 0.05 mM 2-mercaptoethanol. The effects of PACAP38 and N-acetyl[Ala^16,17,D-Lys^38]PACAP38 on apoptotic cell death were assessed by the quantitative determination of cytoplasmic histone-associated DNA-fragmentation (mono- and oligonucleosomes) after exposure to doxorubicin for 48 hours. Each value represents the mean plus/minus the standard deviation of three determinations. **p<0.01 compared to the doxorubicin-treated (control) cells.
# At the highest dose tested (10^−6 M), both peptides reduced the apoptotic cell death of these breast cancer cells by more than 50%.
# HK-2 human kidney cells [2] = assay: Cisplatin-induced apoptotic cell death of human renal proximal tubule epithelial cells (histone-associated DNA fragmentation); assay type: cell-based; conditions: HK-2 cells
# Description: (§1) The HK-2 human kidney cells were cultured in Keratinocyte-Serum Free Medium supplemented with recombinant epidermal growth factor and bovine pituitary extract. The dose-dependent inhibitory effect of PACAP38 on apoptotic cell death was assessed by the quantitative determination of cytoplasmic histone-associated DNA-fragmentation (mono- and oligonucleosomes) after exposure to cisplatin for 24 hours. Each value represents the mean plus/minus the standard error of four determinations in three replicate experiments. **p<0.01 compared to the cisplatin-treated (control) cells.
# as §1, with “deviation” for “error”, “different” for “replicate”, “**p<0.01 and *p<0.05” for “**p<0.01”
# Male C57BL/6 mice = assay: Cisplatin-induced nephrotoxicity in mice; assay type: in vivo, mouse; conditions: cisplatin 20 mg/kg i.p.
# Description: (§2) Male C57BL/6 mice were given a single intraperitoneal injection of 20 mg/kg of cisplatin. Twenty nanomoles of PACAP38 were given intraperitoneally 1 hour before the injection of cisplatin and additional doses were given at 24 and 48 hours after the initial dose. The control group of mice was injected intraperitoneally with the same volume of saline as for the injections of cisplatin and PACAP38 on the same schedule. The mice were euthanized 24 hours after the final injection of PACAP38. Each value represents the mean plus/minus the standard error of four determinations. ***p<0.001 and **p<0.01 compared to the group treated only with cisplatin.
# as §2, with “PACAP38. TNF-α was extracted from one kidney of each mouse and quantified with an enzyme-linked immunosorbent assay.” for “PACAP38.”
# Male C57BL/6 mice were given a single intraperitoneal injection of 20 mg/kg of cisplatin. Twenty nanomoles of PACAP38 were given intraperitoneally 1 hour before the injection of cisplatin and additional doses were given at 24 and 48 hours after the initial dose. The control group of mice were injected intraperitoneally with the same volume of saline as for the injections of cisplatin and PACAP38 on the same schedule. The mice were euthanized 24 hours after the final injection of PACAP38, and the kidneys were removed and fixed in 10% formalin. The fixed sections were stained with hematoxylin and eosin. The sections of the kidneys from control mice show intact renal tubular epithelial cells and well-preserved brush border membranes. The kidneys from mice treated with cisplatin had extensive tubular damage, tubular dilations, intratubular debris, and intratubular casts. […] Tubular damage was more pronounced in the outer cortex in the cisplatin treated mice. The photomicrographs on the left side were made at a lower magnification (×160) than the photomicrographs on the right side (×320). The results described in FIGS. 5, 6, 7, and 8 were from the same experiment.
# as §2, with “six” for “four”
# as §2, with “The cytoprotective effect of PACAP38 against cisplatin-induced nephrotoxicity was also seen in a common in vivo model. Male” for “Male”, “PACAP38.” for “PACAP38. Each value represents the mean plus/minus the standard error of four determinations. ***p<0.001 and **p<0.01 compared to the group treated only with cisplatin.”
# HK-2 human kidney cells [3] = assay: Cell-based adhesion assay: binding of cisplatin-treated renal cells to extracellular matrix components; conditions: HK-2 cells, 50 μM cisplatin, FIG. 5
# Excerpt: The wells of a 96-well plate were coated with […] fibronectin, collagen I or collagen IV. […] PACAP38 partially reversed the decrease in binding to fibronectin and collagen IV in the cells exposed to cisplatin. Each value represents the mean plus/minus the standard error of four determinations. **p<0.01 compared to the corresponding cisplatin-treated (control) cells.
# [4] = tested on: light-chain immunoglobulin-secreting human myeloma cells; assay: Doxorubicin-induced apoptotic cell death of myeloma cells; assay type: cell-based
# Description: The light-chain immunoglobulin-secreting human myeloma cells were cultured in RPMI 1640 medium supplemented with 10% non-inactivated fetal bovine serum and 0.05 mM 2-mercaptoethanol. The effects of PACAP38, and [Ala^16,17,D-Lys^38]PACAP38 on apoptotic cell death was assessed by the quantitative determination of cytoplasmic histone-associated DNA-fragmentation (mono- and oligonucleosomes) after exposure to doxorubicin for 48 hours. Each value represents the mean plus/minus the standard deviation of three determinations. **p<0.01 and *p<0.05 compared to the doxorubicin-treated (control) cells.
# At the lowest dose tested (10^−8 M), both peptides reduced the doxorubicin-induced apoptotic cell death of these malignant plasma cells.
substance,measurement,setting,value
PACAP38,reduction in doxorubicin-induced apoptotic cell death,[1],dose-dependent reduction
same,reduction in cisplatin-induced apoptotic cell death,"HK-2 human kidney cells [2]; cisplatin 24 hours, peptide added to the medium, FIG. 3",significant dose-dependent reduction
same,relative effectiveness as protectants against cisplatin-induced apoptotic cell death,"HK-2 human kidney cells [2]; comparable concentrations, FIG. 4",similarly effective
same,prevention of apoptotic cell death caused by cisplatin,HK-2 human kidney cells [2]; highest dose tested,almost completely prevented
same,increase in TNF-α in the kidney,"Male C57BL/6 mice; 20 nanomoles peptide i.p. 1 h before and at 24 and 48 h, ELISA, FIG. 8",significantly reduced
same,increase in serum creatinine,"Male C57BL/6 mice; 20 nanomoles peptide i.p. 1 h before and at 24 and 48 h, FIG. 6",significantly reduced
same,increase in blood urea nitrogen,"Male C57BL/6 mice; 20 nanomoles peptide i.p. 1 h before and at 24 and 48 h, FIG. 7",significantly reduced
same,morphology of the kidney (hematoxylin and eosin),"Male C57BL/6 mice; 20 nanomoles peptide i.p. 1 h before and at 24 and 48 h, FIG. 9",relatively well preserved tubular morphology
same,relative potency as cytoprotectants against cisplatin-induced impairment of kidney function (serum creatinine),Male C57BL/6 mice; FIG. 10,approximately equipotent
same,reversal of inhibitory effect of cisplatin on binding to fibronectin-based or collagen IV-based matrix,HK-2 human kidney cells [3],significantly reversed
same,effect on doxorubicin-induced apoptotic cell death (dose-response),"[4]; doxorubicin 48 hours, FIG. 16",biphasic dose-response effect
same,effect on doxorubicin-induced apoptotic cell death,[4]; highest dose tested (10^−6 M),significantly enhanced
same,effect on doxorubicin-induced apoptotic cell death,[4]; lowest dose tested (10^−8 M),reduced
